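Assay format: 96-well plates, 48-hour exposure. Here, GI50 denotes the concentration required for 50% inhibition of growth. TGI is the concentration that stops growth completely.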
Legend:
Experiment in all cases: growth of human tumour cells (NCI), 48 h
[1] = system: 786-0 renal
[2] = system: BT-549 breast
[3] = system: HS 578T breast
[4] = system: MCF7 breast
[5] = system: MDA-MB-231 breast
[6] = system: MDA-MB-435
[7] = system: MDA-N
[8] = system: NCI/ADR-RES ovarian
[9] = system: T-47D breast
[10] = system: DMS 273 small cell lung
[11] = system: M19-MEL melanoma

Row | Structure (SMILES) | TGI [1] [µM] | TGI [2] [µM] | TGI [3] [µM] | TGI [4] [µM] | TGI [5] [µM] | TGI [6] [µM] | TGI [7] [µM] | TGI [8] [µM] | TGI [9] [µM] | TGI [10] [µM] | TGI [11] [µM] | further results
1 | COc1cc(/C=C2/Oc3c(OC)cccc3C2=O)ccc1O | > 100 | > 100 | > 100 | > 100 | > 100 | > 100 | > 100 | – | – | – | – | –
2 | CCOC(=O)c1csc(NC(=O)C(C)N2CCOCC2)n1 (centres undefined) | – | – | – | > 100 | > 100 | > 100 | > 100 | > 100 | > 100 | – | – | –
3 | CCN(CC)CCNc1ccc([N+](=O)[O-])c2sc3cc(Cl)ccc3c(=O)c12 | – | > 100 | 37.1 | > 100 | 5.01 | > 100 | – | – | > 100 | – | – | GI50 [2]: 17.7 µM; GI50 [3]: 4.41 µM; GI50 [4]: 3.28 µM; GI50 [5]: 1740 nM; GI50 [6]: 2830 nM; GI50 [9]: 29.8 µM
4 | CC(C)=CCC/C(C)=C/C=C/C(C)=C/C1C[C@@]2(C(O)O1)[C@H](CCCO)/C(=C(/C)C=O)CC[C@]2(C)O (some centres undefined) | – | – | – | – | – | – | – | – | – | 7.82 | 32.4 | –
5 | C[n+]1c(-c2ccc(/C=N/NC(=O)C(=O)N/N=C/c3ccc(-c4cn5ccccc5[n+]4C)cc3)cc2)cn2ccccc21 | > 100 | > 100 | > 100 | > 100 | > 100 | > 100 | > 100 | > 100 | – | – | – | –
6 | c1cncc([O][Ge]([O]c2cccnc2)([O]c2cccnc2)[O]c2cccnc2)c1 | – | – | – | – | – | – | – | – | – | > 100 | > 100 | GI50 [10]: > 100 µM; GI50 [11]: > 100 µM
7 | C/C(=N\NC(=S)N1CCOCC1)c1nc2ncccc2[nH]1 | – | > 100 | > 100 | 80.4 | > 100 | > 100 | > 100 | > 100 | > 100 | – | – | –
8 | Cc1cc(Nc2ccc(Cl)cc2)nc(NCCCNc2ccnc3cc(Cl)ccc23)n1 | – | – | 3.98 | – | – | – | – | – | 3.81 | – | – | GI50 [3]: 1.84 µM; GI50 [9]: 1.83 µM
9 | O=C(O)/C=C/c1ccncc1 | > 100 | – | – | – | – | – | – | – | – | > 100 | > 100 | –
